Patent US9376425B2, “Heterocyclic compounds as MDM2 inhibitors for the treatment of cancer” (AMGEN INC., priority 2011, dated 2016)

Columns and labels:
[1] = molecular target: T1, human MDM2 (GST-hMDM2 aa 1-188), interaction with biotinylated-p53 (aa 1-83) (Homo sapiens, UniProt Q00987); assay: Homogenous Time-Resolved Fluorescence Assay (HTRF1 assay), inhibition of HDM2-p53 interaction; assay type: binding; settings: 2.5 nM GST-hMDM2, 5 nM biotinylated-p53, 200 mM KF
T1 construct: Amino acid residues 1-188 of human MDM2 were expressed; made in house; host or cells: Escherichia coli
T1 sequence (Q00987 1-188): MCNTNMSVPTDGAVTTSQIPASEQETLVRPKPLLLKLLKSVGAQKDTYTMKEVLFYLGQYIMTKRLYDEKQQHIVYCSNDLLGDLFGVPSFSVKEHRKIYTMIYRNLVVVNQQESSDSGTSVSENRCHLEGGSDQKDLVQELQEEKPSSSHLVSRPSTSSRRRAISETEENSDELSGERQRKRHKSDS
Procedure: Homogenous Time-Resolved Fluorescence Assay (HTRF1 Assay)
Residues 1-83 of human p53 were expressed as an amino-terminal AviTag™-TrxA-6xHis fusion protein (biotinylated p53) in E. coli. Each protein was purified from cell paste by affinity chromatography.
Specifically, 10 uL of GST-hMDM2 was incubated with 10 ul of diluted compound (various concentrations, serially diluted) in 10% DMSO for 20 minutes at room temperature. 20 uL of biotinylated-p53 was added to the GST-hMDM2+ compound mixture, and then incubated at room temperature for 60 min. 10 uL of detection buffer consisting of SA-XLent, anti-GST cryptate antibody and KF was added to GST-hMDM2, biotinylated-p53 and compound reaction and left at room temperature to reach equilibrium for >4 hrs. The final concentration of DMSO in the reaction was 2%. Time-resolved fluorescence readings were measured on a microplate multilabel reader. Percentage of inhibition was calculated relative to nutlin-3.

[2] = molecular target: T2, human MDM2 (GST-hMDM2 1-188), interaction with biotinylated-p53 (1-83) (Homo sapiens, UniProt Q00987); assay: improved HTRF assay (HTRF2 assay), inhibition of HDM2-p53 interaction; assay type: binding; settings: 0.2 nM GST-hMDM2, 0.5 nM biotinylated-p53, 100 mM KF
T2 construct: Amino acid residues 1-188 of human MDM2 were expressed; made in house; host or cells: Escherichia coli
T2 sequence (Q00987 1-188): as above
Procedure, shortened: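 Time-resolved fluorescence (HTRF) read after >4 h equilibration with SA-XLent/anti-GST cryptate/KF detection reagents. Reaction: compound plus GST-hMDM2 for 20 min at room temperature, then E. coli-expressed biotinylated p53 residues 1-83 for 60 min, 2% DMSO final. Inhibition expressed versus nutlin-3.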

| Compound | IC50 [1] | IC50 [2] |
| --- | --- | --- |
| Cn1c([C@@H]2[C@@H](c3cccc(Cl)c3)O[C@H](CC(=O)O)C(=O)N2CC2CC2)nc2ccccc21.Cn1c([C@H]2[C@H](c3cccc(Cl)c3)O[C@@H](CC(=O)O)C(=O)N2CC2CC2)nc2ccccc21 (mixture of isomers) [Example 6, 2-((2R,5R,6R)-6-(3-Chlorophenyl)-4-(cyclopropylmethyl)-5-(1-methyl-1H-benzo[d]imidazol-2-yl)-3-oxomorpholin-2-yl)acetic acid and 2-((2S,5S,6S)-6-(3-Chlorophenyl)-4-(cyclopropylmethyl)-5-(1-methyl-1H-benzo[d]imidazol-2-yl)-3-oxomorpholin-2-yl)acetic acid] | 46700 nM |  |
| O=C1[C@@H](Cc2nnn[nH]2)O[C@H](c2cccc(Cl)c2)[C@@H](c2ccc(Cl)cc2)N1CC1CC1.O=C1[C@H](Cc2nnn[nH]2)O[C@H](c2cccc(Cl)c2)[C@@H](c2ccc(Cl)cc2)N1CC1CC1 (mixture of isomers) [Example 50, (2S,5R,6R)-6-(3-Chlorophenyl)-5-(4-chlorophenyl)-4-(cyclopropylmethyl)-2-((tetrazol-5-yl)methyl)morpholin-3-one and (2R,5R,6R)-6-(3-Chlorophenyl)-5-(4-chlorophenyl)-4-(cyclopropylmethyl)-2-((tetrazol-5-yl)methyl)morpholin-3-one] | 700 nM |  |
| O=C(O)C[C@@H]1O[C@H](c2cccc(Cl)c2)[C@@H](c2nc3ccccc3s2)N(CC2CC2)C1=O (racemic) [Example 3, 2-((2S,5S,6R)-5-(Benzo[d]thiazol-2-yl)-6-(3-chlorophenyl)-4-(cyclopropylmethyl)-3-oxomorpholin-2-yl)acetic acid and 2-((2R,5R,6S)-5-(Benzo[d]thiazol-2-yl)-6-(3-chlorophenyl)-4-(cyclopropylmethyl)-3-oxomorpholin-2-yl)acetic acid] | 23500 nM |  |
| O=C(O)C[C@H]1O[C@H](c2cccc(Cl)c2)[C@@H](c2nc3ccccc3s2)N(CC2CC2)C1=O (racemic) [Example 4, 2-((2R,5S,6R)-5-(Benzo[d]thiazol-2-yl)-6-(3-chlorophenyl)-4-(cyclopropylmethyl)-3-oxomorpholin-2-yl)acetic acid and 2-((2S,5R,6S)-5-(Benzo[d]thiazol-2-yl)-6-(3-chlorophenyl)-4-(cyclopropylmethyl)-3-oxomorpholin-2-yl)acetic acid] | 25000 nM |  |
| Cn1c([C@@H]2[C@@H](c3cccc(Cl)c3)O[C@@H](CC(=O)O)C(=O)N2CC2CC2)nc2ccccc21 (racemic) [Example 5, 2-((2S,5R,6R)-6-(3-Chlorophenyl)-4-(cyclopropylmethyl)-5-(1-methyl-1H-benzo[d]imidazol-2-yl)-3-oxomorpholin-2-yl)acetic acid and 2-((2R,5S,6S)-6-(3-Chlorophenyl)-4-(cyclopropylmethyl)-5-(1-methyl-1H-benzo[d]imidazol-2-yl)-3-oxomorpholin-2-yl)acetic acid] | 39500 nM |  |
| O=C(O)C[C@H]1O[C@H](c2cccc(Cl)c2)[C@@H](c2cc3ccccc3[nH]2)N(CC2CC2)C1=O (single isomer, unassigned) [Example 1, 2-((2R,5R,6R)-6-(3-Chlorophenyl)-4-(cyclopropylmethyl)-5-(1H-indol-2-yl)-3-oxomorpholin-2-yl)acetic acid or 2-((2S,5R,6R)-6-(3-Chlorophenyl)-4-(cyclopropylmethyl)-5-(1H-indol-2-yl)-3-oxomorpholin-2-yl)acetic acid] | 33400 nM |  |
| C[C@@H](CSC(C)(C)C)N1C(=O)CO[C@H](c2cccc(Cl)c2)[C@H]1c1ccc(Cl)cc1 [Example 222, (5R,6R)-4-((S)-1-(tert-butylthio)propan-2-yl)-6-(3-chlorophenyl)-5-(4-chlorophenyl)morpholin-3-one] |  | 170 nM |
| CC(C)(C)S(=O)(=O)[C@H]1CCCC[C@@H]1N1C(=O)[C@@H](CC(=O)O)O[C@H](c2cccc(Cl)c2)[C@H]1c1ccc(Cl)cc1 [Example 249, 2-((2R,5R,6R)-4-((1S,2S)-2-(tert-butylsulfonyl)cyclohexyl)-6-(3-chlorophenyl)-5-(4-chlorophenyl)-3-oxomorpholin-2-yl)acetic acid] |  | 4 nM |
| Cc1ccc([C@H]2O[C@H](CC(=O)O)C(=O)N([C@H](CS(=O)(=O)C(C)(C)C)C3CC3)[C@@H]2c2ccc(Cl)cc2)cc1Cl [Example 327, 2-((2R,5R,6R)-4-((S)-2-(tert-Butylsulfonyl)-1-cyclopropylethyl)-6-(3-chloro-4-methylphenyl)-5-(4-chlorophenyl)-3-oxomorpholin-2-yl)acetic acid] |  | 51 nM |
| CC[C@@H](CS(=O)(=O)C(C)(C)C)N1C(=O)[C@H](CC(=O)NC#N)O[C@H](c2cccc(Cl)c2)[C@H]1c1ccc(Cl)cc1 [Example 344, 2-((2S,5R,6R)-4-((S)-1-(tert-Butylsulfonyl)butan-2-yl)-6-(3-chlorophenyl)-5-(4-chlorophenyl)-3-oxomorpholin-2-yl)-N-cyanoacetamide] |  | < 1 nM |
| CC[C@@H](CS(=O)(=O)C(C)(C)C)N1C(=O)[C@@H](CC(=O)NC#N)O[C@H](c2cccc(Cl)c2)[C@H]1c1ccc(Cl)cc1 [Example 345, 2-((2R,5R,6R)-4-((S)-1-(tert-Butylsulfonyl)butan-2-yl)-6-(3-chlorophenyl)-5-(4-chlorophenyl)-3-oxomorpholin-2-yl)-N-cyanoacetamide] |  | < 1 nM |
| CC[C@@H](CS(=O)(=O)C(C)(C)C)N1C(=O)[C@@H](CNC(=O)OC(C)(C)C)O[C@H](c2cccc(Cl)c2)[C@H]1c1ccc(Cl)cc1 [Example 377, tert-Butyl (((2R,5R,6R)-4-((S)-1-(tert-utylsulfonyl)butan-2-yl)-6-(3-chlorophenyl)-5-(4-chlorophenyl)-3-oxomorpholin-2-yl)methyl)carbamate and tert-butyl (((2S,5R,6R)-4-((S)-1-(tert-butylsulfonyl)butan-2-yl)-6-(3-chlorophenyl)-5-(4-chlorophenyl)-3-oxomorpholin-2-yl)methyl)carbamate] |  | 86 nM |
| CC[C@@H](CS(=O)(=O)C(C)(C)C)N1C(=O)[C@@H](CC#N)O[C@H](c2cccc(Cl)c2)[C@H]1c1ccc(Cl)cc1 [Example 381, 2-((2R,5R,6R)-4-((S)-1-(tert-Butylsulfonyl)butan-2-yl)-6-(3-chlorophenyl)-5-(4-chlorophenyl)-3-oxomorpholin-2-yl)acetonitrile] |  | 66 nM |
| CC[C@@H](CS(=O)(=O)C(C)(C)C)N1C(=O)[C@@H](Cc2nnn[nH]2)O[C@H](c2cccc(Cl)c2)[C@H]1c1ccc(Cl)cc1 [Example 382, (2R,5R,6R)-2-((1H-Tetrazol-5-yl)methyl)-4-((S)-1-(tert-butylsulfonyl)butan-2-yl)-6-(3-chlorophenyl)-5-(4-chlorophenyl)morpholin-3-one] |  | < 1 nM |
| CC[C@@H](CS(=O)(=O)C(C)(C)C)N1C(=O)[C@H](Cc2nnn[nH]2)O[C@H](c2cccc(Cl)c2)[C@H]1c1ccc(Cl)cc1 [Example 383, (2S,5R,6R)-2-((1H-Tetrazol-5-yl)methyl)-4-((S)-1-(tert-butylsulfonyl)butan-2-yl)-6-(3-chlorophenyl)-5-(4-chlorophenyl)morpholin-3-one] |  | < 1 nM |
| CC(C)(C)S(=O)(=O)C[C@H](C1CC1)N1C(=O)[C@H](Cc2ccno2)O[C@H](c2cccc(Cl)c2)[C@H]1c1ccc(Cl)cc1 [Example 384, (2S,5R,6R)-4-((S)-2-(tert-Butylsulfonyl)-1-cyclopropylethyl)-6-(3-chlorophenyl)-5-(4-chlorophenyl)-2-(isoxazol-5-ylmethyl)morpholin-3-one] |  | 13 nM |
| Cn1ccnc1C[C@H]1O[C@H](c2cccc(Cl)c2)[C@@H](c2ccc(Cl)cc2)N([C@H](CS(=O)(=O)C(C)(C)C)C2CC2)C1=O [Example 402, (2R,5R,6R)-4-((S)-2-(tert-Butylsulfonyl)-1-cyclopropylethyl)-6-(3-chlorophenyl)-5-(4-chlorophenyl)-2-((1-methyl-1H-imidazol-2-yl)methyl)morpholin-3-one] |  | 29 nM |
| (2R,5R,6R)-4-((S)-2-(tert-Butylsulfonyl)-1-cyclopropylethyl)-6-(3-chlorophenyl)-5-(4-chlorophenyl)-2-((3-methyl-1H-1,2,4-triazol-5-yl)methyl)morpholin-3-one and (2S,5R,6R)-4-((S)-2-(tert-butylsulfonyl)-1-cyclopropylethyl)-6-(3-chlorophenyl)-5-(4-chlorophenyl)-2-((3-methyl-1H-1,2,4-triazol-5-yl)methyl)morpholin-3-one [Example 391] |  | 4 nM |
| Methyl 2-((2R,5R,6R)-6-(3-chlorophenyl)-5-(4-chlorophenyl)-4-((S)-1-((2-(dimethylamino)ethyl)sulfonyl)butan-2-yl)-3-oxomorpholin-2-yl)acetate and methyl 2-((2S,5R,6R)-6-(3-chlorophenyl)-5-(4-chlorophenyl)-4-((S)-1-((2-(dimethylamino)ethyl)sulfonyl)butan-2-yl)-3-oxomorpholin-2-yl)acetate [Example 246] |  | 6 nM |
